In PubChem BioAssay AID330 (DTP/NCI, 2004):
Where “and” joins values, the source holds several entries; their conditions need not be identical. Equal entries are not always repeated. Inconclusive results and toxic doses are left out. The calls were made as follows: active = survival T/C of 150% or more; inactive = T/C below 125% in these data.

Test system: P388 leukemia ip, CD2F1 mice, survival T/C
Assay: NCI In Vivo Anticancer Drug Screen. Data for tumor model P388 Leukemia (intraperitoneal) in CD2F1 (CDF1) mice
Conditions: endpoint: median survival time, higher = longer survival
Method in brief: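 Mice carrying the transplanted tumor received test compound or vehicle. Survival was recorded in each group, and the value is the treated-group measurement divided by that of the vehicle-treated control group.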

[1] = dose: 60.0 mg/kg/injection, schedule: Q01DX005 (ip), vehicle: Klucel (hydroxypropylcellulose) (HPC)
[2] = dose: 60.0 mg/kg/injection, schedule: Q01DX005 (ip), vehicle: saline with Tween-80
[3] = dose: 120.0 mg/kg/injection, schedule: Q01DX005 (ip), vehicle: saline with Tween-80
[4] = dose: 240.0 mg/kg/injection, schedule: Q01DX005 (ip), vehicle: saline with Tween-80
[5] = dose: 50.0 mg/kg/injection, schedule: Q01DX009 (ip), vehicle: saline
[6] = dose: 100.0 mg/kg/injection, schedule: Q01DX009 (ip), vehicle: saline
[7] = dose: 50.0 mg/kg/injection, schedule: Q01DX009 (ip), vehicle: saline with Tween-80
[8] = dose: 100.0 mg/kg/injection, schedule: Q01DX009 (ip), vehicle: saline with Tween-80
[9] = dose: 200.0 mg/kg/injection, schedule: Q01DX009 (ip), vehicle: saline with Tween-80
[10] = dose: 50.0 mg/kg/injection, schedule: Q01DX009 (ip), vehicle: Klucel (hydroxypropylcellulose) (HPC)
[11] = dose: 100.0 mg/kg/injection, schedule: Q01DX009 (ip), vehicle: Klucel (hydroxypropylcellulose) (HPC)
[12] = dose: 200.0 mg/kg/injection, schedule: Q01DX009 (ip), vehicle: Klucel (hydroxypropylcellulose) (HPC)
[13] = dose: 100.0 mg/kg/injection, schedule: Q04DX003 (ip), vehicle: saline with Tween-80
[14] = dose: 200.0 mg/kg/injection, schedule: Q04DX003 (ip), vehicle: saline with Tween-80
[15] = dose: 50.0 mg/kg/injection, schedule: Q01DX005 (ip), vehicle: Klucel (hydroxypropylcellulose) (HPC)
[16] = dose: 100.0 mg/kg/injection, schedule: Q01DX005 (ip), vehicle: Klucel (hydroxypropylcellulose) (HPC)
[17] = dose: 200.0 mg/kg/injection, schedule: Q01DX005 (ip), vehicle: Klucel (hydroxypropylcellulose) (HPC)
[18] = dose: 100.0 mg/kg/injection, schedule: Q04DX003 (ip), vehicle: Klucel (hydroxypropylcellulose) (HPC)
[19] = dose: 200.0 mg/kg/injection, schedule: Q04DX003 (ip), vehicle: Klucel (hydroxypropylcellulose) (HPC)
[20] = dose: 200.0 mg/kg/injection, schedule: Q01DX009 (ip), vehicle: saline

Measured: T/C

COc1ccc(C2C(C(=O)NCc3ccccc3)=C(C)NC(C)=C2C(=O)NCc2ccccc2)cc1OC
inactive: dose: 15.0 mg/kg/injection, schedule: Q01DX005 (ip), vehicle: Klucel (hydroxypropylcellulose) (HPC) 100 % of control | dose: 30.0 mg/kg/injection, schedule: Q01DX005 (ip), vehicle: Klucel (hydroxypropylcellulose) (HPC) 100 % of control | [1] 100 % of control and 88 % of control

C=C(C)c1ccc2c(c1)[C@H](OC(=O)c1ccccc1)C[C@H]1[C@](C)(COC(=O)c3ccccc3)CCC[C@]21C
inactive: [2] 105 % of control | [3] 92 % of control | [4] 90 % of control

O=C(CCl)NCCCl
inactive: [5] 97 % of control | [6] 100 % of control

CCOC(=O)c1c(NC(=S)NC)sc(C)c1C
inactive: [7] 106 % of control | [8] 89 % of control | [9] 106 % of control

O=C(O)C1C(C(=O)O)C2(Cl)C(Cl)=C(Cl)C1(Cl)C2(Cl)Cl.[Fe] (stereo unspecified)
inactive: dose: 6.25 mg/kg/injection, schedule: Q01DX001 (ip), vehicle: saline with Tween-80 100 % of control | dose: 12.5 mg/kg/injection, schedule: Q01DX001 (ip), vehicle: saline with Tween-80 104 % of control | dose: 25.0 mg/kg/injection, schedule: Q01DX001 (ip), vehicle: saline with Tween-80 109 % of control

CCCCCC[C@H]([C@H](C)O)n1cnc2c(N)ncnc21
inactive: dose: 1.56 mg/kg/injection, schedule: Q01DX009 (ip), vehicle: Klucel (hydroxypropylcellulose) (HPC) 100 % of control | dose: 3.12 mg/kg/injection, schedule: Q01DX009 (ip), vehicle: Klucel (hydroxypropylcellulose) (HPC) 100 % of control | dose: 4.0 mg/kg/injection, schedule: Q01DX005 (ip), vehicle: Klucel (hydroxypropylcellulose) (HPC) 100 % of control | dose: 6.25 mg/kg/injection, schedule: Q01DX009 (ip), vehicle: Klucel (hydroxypropylcellulose) (HPC) 98 % of control | dose: 8.0 mg/kg/injection, schedule: Q01DX005 (ip), vehicle: Klucel (hydroxypropylcellulose) (HPC) 102 % of control | dose: 12.5 mg/kg/injection, schedule: Q01DX009 (ip), vehicle: Klucel (hydroxypropylcellulose) (HPC) 105 % of control | dose: 16.0 mg/kg/injection, schedule: Q01DX005 (ip), vehicle: Klucel (hydroxypropylcellulose) (HPC) 100 % of control | dose: 25.0 mg/kg/injection, schedule: Q01DX009 (ip), vehicle: Klucel (hydroxypropylcellulose) (HPC) 105 % of control and 96 % of control | dose: 32.0 mg/kg/injection, schedule: Q01DX005 (ip), vehicle: Klucel (hydroxypropylcellulose) (HPC) 104 % of control | [10] 104 % of control and 96 % of control | dose: 64.0 mg/kg/injection, schedule: Q01DX005 (ip), vehicle: Klucel (hydroxypropylcellulose) (HPC) 100 % of control | [11] 98 % of control | [12] 98 % of control

O=C1CSC(c2ccc(Cl)cc2)N1c1nncs1 (stereo unspecified)
inactive: [2] 101 % of control | [3] 102 % of control | [4] 108 % of control

COc1ccc(Cl)cc1NC(=O)NNC(=O)C(=O)NC1CC1
inactive: [7] 100 % of control | [8] 97 % of control | [9] 102 % of control

CO/C=C1\CC(=O)N(C)C1=O
inactive: [13] 110 % of control | [14] 97 % of control | dose: 400.0 mg/kg/injection, schedule: Q04DX003 (ip), vehicle: saline with Tween-80 97 % of control

Nc1ccc(Cn2ccnn2)cc1
inactive: [2] 100 % of control | [3] 95 % of control | [4] 101 % of control

O=C(O)c1c(-c2ccc(Cl)cc2)c(-c2ccc(Cl)cc2)nn(CCO)c1=O
inactive: dose: 25.0 mg/kg/injection, schedule: Q04DX002 (ip), vehicle: distilled water + Tween-80 101 % of control | dose: 50.0 mg/kg/injection, schedule: Q04DX002 (ip), vehicle: distilled water + Tween-80 100 % of control | dose: 100.0 mg/kg/injection, schedule: Q04DX002 (ip), vehicle: distilled water + Tween-80 102 % of control | dose: 200.0 mg/kg/injection, schedule: Q04DX002 (ip), vehicle: distilled water + Tween-80 95 % of control

NC(CSCc1ccccc1)C(=O)Nc1ccc([N+](=O)[O-])cc1 (stereo unspecified)
inactive: [15] 110 % of control | [16] 101 % of control | [17] 104 % of control

COc1ccc(OC)c2c(Cl)cc(N)nc12
inactive: dose: 25.0 mg/kg/injection, schedule: Q01DX005 (ip), vehicle: Klucel (hydroxypropylcellulose) (HPC) 102 % of control | [15] 106 % of control | [16] 101 % of control | [17] 102 % of control

O=C1OCCOCCOCCOCCOC(=O)C1c1ccccc1
inactive: [18] 101 % of control | [19] 101 % of control | dose: 400.0 mg/kg/injection, schedule: Q04DX003 (ip), vehicle: Klucel (hydroxypropylcellulose) (HPC) 101 % of control

C=C1[C@@]2(O)CCCC[C@@H]2C[N+]1(C)C
inactive: [5] 91 % of control | [6] 90 % of control | [20] 95 % of control

N=C(N)S(=O)(=O)c1ccccc1
inactive: dose: 12.5 mg/kg/injection, schedule: Q04DX003 (ip), vehicle: Klucel (hydroxypropylcellulose) (HPC) 102 % of control and 106 % of control | dose: 25.0 mg/kg/injection, schedule: Q04DX003 (ip), vehicle: Klucel (hydroxypropylcellulose) (HPC) 106 % of control and 108 % of control (2×) | dose: 50.0 mg/kg/injection, schedule: Q04DX003 (ip), vehicle: Klucel (hydroxypropylcellulose) (HPC) 102 % of control and 107 % of control and 121 % of control | [18] 112 % of control | [19] 118 % of control

CCCC1CC[N-]CC1.CCCC1CC[N-]CC1.[Br][Pt+2]([Br])([Br])[Br]
inactive: dose: 1.56 mg/kg/injection, schedule: Q01DX009 (ip), vehicle: saline with Tween-80 94 % of control | dose: 3.13 mg/kg/injection, schedule: Q01DX009 (ip), vehicle: saline with Tween-80 87 % of control | dose: 6.25 mg/kg/injection, schedule: Q01DX009 (ip), vehicle: saline with Tween-80 95 % of control | dose: 12.5 mg/kg/injection, schedule: Q01DX009 (ip), vehicle: saline with Tween-80 98 % of control | dose: 25.0 mg/kg/injection, schedule: Q01DX009 (ip), vehicle: saline with Tween-80 123 % of control

NCC(=O)O.[Cl][Ga]([Cl])[Cl]
inactive: dose: 66.0 mg/kg/injection, schedule: Q01DX009 (ip), vehicle: saline 110 % of control | [6] 110 % of control | dose: 100.0 mg/kg/injection, schedule: Q04DX003 (ip), vehicle: saline sonified 104 % of control | dose: 150.0 mg/kg/injection, schedule: Q01DX009 (ip), vehicle: saline 120 % of control

COc1cc2c(cc1OC)C(Cc1ccccc1[N+](=O)[O-])=NCC2
inactive: dose: 25.0 mg/kg/injection, schedule: Q04DX003 (ip), vehicle: saline with Tween-80 99 % of control | dose: 50.0 mg/kg/injection, schedule: Q04DX003 (ip), vehicle: saline with Tween-80 100 % of control | [13] 114 % of control | [14] 100 % of control

N#CCCS(=O)(=O)c1ccc(Cl)cc1
inactive: [5] 99 % of control | [6] 100 % of control | [20] 100 % of control

CCCCCCCCCCCN1CCS(=O)(=O)CC1
inactive: [10] 100 % of control | [11] 98 % of control | [12] 94 % of control

O=S(=O)(c1cc(Cl)c(Cl)cc1Cl)N(CCCCCN(S(=O)(=O)c1cc(Cl)c(Cl)cc1Cl)S(=O)(=O)c1cc(Cl)c(Cl)cc1Cl)S(=O)(=O)c1cc(Cl)c(Cl)cc1Cl
inactive: [1] 91 % of control | dose: 120.0 mg/kg/injection, schedule: Q01DX005 (ip), vehicle: Klucel (hydroxypropylcellulose) (HPC) 91 % of control

Cc1nnc2nc(N)[nH]n2c1=O
inactive: dose: 25.0 mg/kg/injection, schedule: Q01DX005 (ip), vehicle: water 95 % of control | dose: 50.0 mg/kg/injection, schedule: Q01DX005 (ip), vehicle: water 98 % of control | dose: 100.0 mg/kg/injection, schedule: Q01DX005 (ip), vehicle: water 93 % of control

CC(=O)N/N=C1\CCC2CCC1C2 (stereo unspecified)
inactive: [15] 100 % of control | [16] 99 % of control | [17] 96 % of control

C=CC(c1ccccc1)c1cc2c(cc1OCC)OCO2 (stereo unspecified)
inactive: [15] 105 % of control | [16] 100 % of control | [17] 94 % of control
